The source of these data is patent US11091497B2, “Pyrano[3,4-b]pyrazine kappa opioid receptor ligands for treating addiction, pruritus, pain, and inflammation” (The Rockefeller University, priority 2017, dated 2021).

The target in experiment [1] is T1, kappa opioid receptor (PathHunter U2OS hOPRK1 β-arrestin cell line) (Homo sapiens, UniProt P41145).
T1 construct: host or cells: U2OS (PathHunter U2OS hOPRK1 β-arrestin cell line)
Kind of experiment: β-arrestin coupling (PathHunter Detection Kit). The class given is cell-based. The following applies: for Emax at 10 µM: U2OS; for β-arrestin coupling % efficacy: maximal, normalized to U69,593, No stim = no stimulation at highest dose tested, 10,000 nM. The method, then: (§1) Membranes from cells stably expressing kappa, mu or delta opioid receptor constructs (PathHunter U2OS hOPRK1, CHO-K1 rOPRM1 and CHO-K1 OPRD1 β-arrestin cell line, DiscoverX, Fremont, Calif., USA) were used. Cells were scraped from tissue culture plates, homogenized with a tissue tearor homogenizer in membrane buffer (10 mM Tris, 100 mM NaCl, and 1 mM EDTA; pH 7.4), and centrifuged at 20,000 g for 30 minutes at 4° C. and frozen at −80° C. until use. Prior to use, the pellets were resuspended in binding buffer (50 mm Tris, 100 mm NaCl, pH 7.4), homogenized with a dounce homogenizer and […] incubated with 1.0 nM of the appropriate tritiated ligand ([^3H]U69,593, [^3H]DAMGO or [^3H]DPDPE for kappa, mu or delta binding, respectively) and the appropriate concentration of compound for 60 minutes at 30° C. Membranes with bound tritiated ligand were collected on Whatman GF/B filter paper (Brandel, Gaithersburg, Md., USA) utilizing a Brandel harvester. Bound tritiated ligand was quantified using a TriCarb-2900TR scintillation counter (Packard, Downers Grove, Ill., USA) following addition of 4 ml ReadySafe scintillation fluid (Beckman Coulter, Indianapolis, Ind., USA). Compiled data for each compound was normalized to the maximal binding in the absence of compound, with non-specific binding subtracted. Curve fitting was done in Microcal Origin 17.0 software using logistic sigmoidal fit, to determine IC50. GTPgammaS Membranes from U2OS cells stably expressing human kappa opioid receptors were used. Cells were scraped from tissue culture plates, homogenized with a tissue tearor homogenizer in membrane buffer (10 mM Tris, 100 mM NaCl, and 1 mM EDTA; pH 7.4), and centrifuged at 20,000 g for 30 minutes at 4° C. and frozen at −80° C. until use. Prior to use, the pellets were resuspended in assay buffer (50 mm Tris, 100 mm NaCl, 5 mM MgCl2, and 1 mM EDTA; pH 7.4) and homogenized with a dounce homogenizer and 50 μg incubated with 0.1 nM [35 S]GTPγS, 10 nM GDP, and the appropriate concentration of agonist for 20 minutes at 30° C. To test inhibition, all samples were incubated with 100 nM U69,593 as well as the appropriate concentration of compound. Membranes with bound [35 S]GTPγS were collected on Whatman GF/B filter paper (Brandel, Gaithersburg, Md., USA) utilizing a Brandel harvester. Bound [35 S]GTPγS was quantified using a TriCarb-2900TR scintillation counter (Packard, Downers Grove, Ill., USA) following addition of 4 mL ReadySafe scintillation fluid (Beckman Coulter, Indianapolis, Ind., USA). […] NA indicates not applicable. For each compound, curve fitting was done in Microcal Origin 17.0 software using logistic sigmoidal fit, to determine EC50 and maximal percent stimulation, which in turn was normalized to the maximal percent stimulation of the test full agonist compound U69,593 to determine % efficacy. β2-Arrestin Experiments were conducted using the PathHunter Detection Kit obtained from DiscoverX. Cells stably expressing kappa, mu or delta opioid receptor constructs (PathHunter U2OS hOPRK1, CHO-K1 rOPRM1 and CHO-K1 OPRD1 β-arrestin cell line, DiscoverX, Fremont, Calif., USA) were plated in 96- or 384-well plates. Cells were stimulated with the compounds for 90 minutes at 37° C. To test inhibition, all samples were incubated with 100 nM U69,593 as well as the appropriate concentration of compound. Cells were then incubated for 60 minutes in the presence of galoctosidase substrate, yielding chemiluminescent product. Chemiluminescence was measured using a Synergy Neo microplate reader (BioTek, Winooski, Vt., USA). Antagonism assays were done in the same manner, in the presence of 300 nM U69,593, 1 μM DAMGO or 1 μM DPDPE for KOP-R, MOP-R or DOP-R assays, respectively. […] NA indicates not applicable. […]

Experiment [2] deals with T2, human kappa opioid receptors (Homo sapiens, UniProt P41145).
T2 construct: expressed in transfected cells; host or cells: U2OS
T2 sequence (P41145 whole entry): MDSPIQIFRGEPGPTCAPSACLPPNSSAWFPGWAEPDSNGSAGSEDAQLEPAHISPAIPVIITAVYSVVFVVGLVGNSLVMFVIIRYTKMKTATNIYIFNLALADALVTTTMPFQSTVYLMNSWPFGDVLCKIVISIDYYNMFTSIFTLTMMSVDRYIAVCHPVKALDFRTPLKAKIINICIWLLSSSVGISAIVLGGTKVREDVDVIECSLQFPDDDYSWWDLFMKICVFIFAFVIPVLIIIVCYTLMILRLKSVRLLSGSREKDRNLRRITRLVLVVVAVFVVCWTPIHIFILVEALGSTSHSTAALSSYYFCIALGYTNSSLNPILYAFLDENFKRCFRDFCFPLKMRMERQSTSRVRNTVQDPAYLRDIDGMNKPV
The experiment is described as follows: [35S]GTPγS stimulation, membranes from U2OS cells. The class given is biochemical. The settings on record: for Emax: read-out: GTPγS stimulation % efficacy. How it is done:
Membranes from cells stably expressing kappa, mu or delta opioid receptor constructs (PathHunter U2OS hOPRK1, CHO-K1 rOPRM1 and CHO-K1 OPRD1 β-arrestin cell line, DiscoverX, Fremont, Calif., USA) were used. Cells were scraped from tissue culture plates, homogenized with a tissue tearor homogenizer in membrane buffer (10 mM Tris, 100 mM NaCl, and 1 mM EDTA; pH 7.4), and centrifuged at 20,000 g for 30 minutes at 4° C. and frozen at −80° C. until use. Prior to use, the pellets were resuspended in binding buffer (50 mm Tris, 100 mm NaCl, pH 7.4), homogenized with a dounce homogenizer and […] incubated with 1.0 nM of the appropriate tritiated ligand ([^3H]U69,593, [^3H]DAMGO or [^3H]DPDPE for kappa, mu or delta binding, respectively) and the appropriate concentration of compound for 60 minutes at 30° C. Membranes with bound tritiated ligand were collected on Whatman GF/B filter paper (Brandel, Gaithersburg, Md., USA) utilizing a Brandel harvester. Bound tritiated ligand was quantified using a TriCarb-2900TR scintillation counter (Packard, Downers Grove, Ill., USA) following addition of 4 ml ReadySafe scintillation fluid (Beckman Coulter, Indianapolis, Ind., USA). Compiled data for each compound was normalized to the maximal binding in the absence of compound, with non-specific binding subtracted. Curve fitting was done in Microcal Origin 17.0 software using logistic sigmoidal fit, to determine IC50. GTPgammaS Membranes from U2OS cells stably expressing human kappa opioid receptors were used. Cells were scraped from tissue culture plates, homogenized with a tissue tearor homogenizer in membrane buffer (10 mM Tris, 100 mM NaCl, and 1 mM EDTA; pH 7.4), and centrifuged at 20,000 g for 30 minutes at 4° C. and frozen at −80° C. until use. Prior to use, the pellets were resuspended in assay buffer (50 mm Tris, 100 mm NaCl, 5 mM MgCl2, and 1 mM EDTA; pH 7.4) and homogenized with a dounce homogenizer and 50 μg incubated with 0.1 nM [35 S]GTPγS, 10 nM GDP, and the appropriate concentration of agonist for 20 minutes at 30° C. To test inhibition, all samples were incubated with 100 nM U69,593 as well as the appropriate concentration of compound. Membranes with bound [35 S]GTPγS were collected on Whatman GF/B filter paper (Brandel, Gaithersburg, Md., USA) utilizing a Brandel harvester. Bound [35 S]GTPγS was quantified using a TriCarb-2900TR scintillation counter (Packard, Downers Grove, Ill., USA) following addition of 4 mL ReadySafe scintillation fluid (Beckman Coulter, Indianapolis, Ind., USA). […] For each compound, curve fitting was done in Microcal Origin 17.0 software using logistic sigmoidal fit, to determine EC50 and maximal percent stimulation, which in turn was normalized to the maximal percent stimulation of the test full agonist compound U69,593 to determine % efficacy. β2-Arrestin Experiments were conducted using the PathHunter Detection Kit obtained from DiscoverX. Cells stably expressing kappa, mu or delta opioid receptor constructs (PathHunter U2OS hOPRK1, CHO-K1 rOPRM1 and CHO-K1 OPRD1 β-arrestin cell line, DiscoverX, Fremont, Calif., USA) were plated in 96- or 384-well plates. Cells were stimulated with the compounds for 90 minutes at 37° C. To test inhibition, all samples were incubated with 100 nM U69,593 as well as the appropriate concentration of compound. Cells were then incubated for 60 minutes in the presence of galoctosidase substrate, yielding chemiluminescent product. Chemiluminescence was measured using a Synergy Neo microplate reader (BioTek, Winooski, Vt., USA). Antagonism assays were done in the same manner, in the presence of 300 nM U69,593, 1 μM DAMGO or 1 μM DPDPE for KOP-R, MOP-R or DOP-R assays, respectively.
(In general: GTPγS is a poorly hydrolysed GTP analogue; its binding reports G protein activation.)

Experiment [3] addresses T3, kappa opioid receptor (PathHunter U2OS hOPRK1 membranes) (Homo sapiens, UniProt P41145).
T3 construct: host or cells: U2OS (PathHunter U2OS hOPRK1 β-arrestin cell line)
The experiment is described as follows: Tritiated U69,593 binding for KOP-R membranes. How it is done: Tritiated U69,593 binding for KOP-R membranes; tritiated DAMGO binding for MOP-R membranes; and tritiated DPDPE binding for DOP-R membranes:
as §1

Setting [4] is: read-out: β-arrestin coupling % efficacy at 10 μM.
The mark [5] stands for this setting: read-out: β-arrestin coupling % efficacy.
The mark [6] stands for this setting: 1.0 nM [3H]U69,593, 60 minutes at 30° C., read-out: Binding IC50.

pEC50, pIC50: −log10 of the molar value. Read-outs that look alike come from different tables or passages of the source.

T1 sequence (P41145 whole entry): as above
T3 sequence (P41145 whole entry): as above

As for `O=C(Cc1ccc(Cl)c(Cl)c1)N1CCN(CC2CC2)[C@@H]2COC[C@H](N3CCCC3)[C@H]21` (racemic) [Example 5A70], the Emax at 10 µM in experiment [1] (setting [4]) was determined as 50%. Moreover, in experiment [2], the pEC50 – broadly, the negative decadic logarithm of the EC50, by convention in mol/L – is 7.72 and the Emax worked out at 90%. Moreover, the negative-log IC50 (pIC50) (commonly −log10 of the IC50, conventionally taken in molar units) in experiment [3] was 7.15.
In the case of `O=C(Cc1ccc(Cl)c(Cl)c1)N1CCN(CC2CCC2)[C@@H]2COC[C@H](N3CCCC3)[C@H]21` (single isomer, unassigned) [Example 5A55A], the “β-arrestin coupling % efficacy” value in experiment [1] was “No stim”. In experiment [2], the pEC50 is 7.52 and the Emax was 84%. In addition, the negative-log IC50 (pIC50) in experiment [3] was 7.03.
With `O=C(Cc1ccc(Cl)c(Cl)c1)N1CCN(CC2CCC2)[C@@H]2COC[C@H](N3CCCC3)[C@H]21` (racemic) [Example 5A55], the Emax at 10 µM in experiment [1] (setting [4]) was 40%. For the same molecule, in experiment [2], the pEC50 was 7.68 and the Emax turned out to be 67%. Also, the pIC50 in experiment [3] is 7.24.
Take `O=C(Cc1ccc(Cl)c(C(F)(F)F)c1)N1CCN[C@@H]2COC[C@H](N3CCCC3)[C@H]21` (racemic) [Example 5A46]: the Emax at 10 µM in experiment [1] (setting [4]) was determined as 100%. Besides, in experiment [2], the pEC50 is 8.20 and the Emax worked out at 131%. Moreover, the pIC50 in experiment [3] was 7.82.
With `O=C(Cc1cccc(C(F)(F)F)c1)N1CCN[C@@H]2COC[C@H](N3CCCC3)[C@H]21` (racemic) [Example 5A26], the pEC50 in experiment [1] is 5.49. Also, the Emax at 10 µM in experiment [1] (setting [5]) worked out at 42%. In experiment [2], the pEC50 was 6.89 and the Emax stood at 108%. The pIC50 in experiment [3] (setting [6]) was 6.95.
Turning to `O=C(Cc1cccc(Cl)c1Cl)N1CCN[C@@H]2COC[C@H](N3CCCC3)[C@H]21` (racemic) [Example 5A48], in experiment [1], the “β-arrestin coupling % efficacy” value was “No stim”. Moreover, in experiment [2], the pEC50 is 4.66 and the Emax is 181%. Moreover, the pIC50 in experiment [3] (setting [6]) is 5.98.
Take `O=C(Cc1ccc(Cl)c(Cl)c1)N1CCN(Cc2ccccc2)[C@@H]2COC[C@H](N3CCCC3)[C@H]21` (single isomer, unassigned) [Example 5A53A]: in experiment [1] (setting [4]), the Emax at 10 µM is 80%. In experiment [2], the pEC50 is 7.74 and the Emax worked out at 80%. Besides, in experiment [3], the pIC50 was 6.97.
With `CC(C)CN1CCN(C(=O)Cc2ccc(Cl)c(Cl)c2)[C@H]2[C@H]1COC[C@@H]2N1CCCC1` [Example 5A71], the Emax at 10 µM in experiment [1] (setting [4]) was found to be 40%. In experiment [2], the pEC50 was 7.85 and the Emax amounted to 93%. For the same molecule, in experiment [3], the pIC50 was 7.57.
Consider `CN(C)[C@H]1COC[C@H]2NCCN(C(=O)Cc3ccc(Cl)c(Cl)c3)[C@@H]21` (racemic) [Example 5A51], for which the “β-arrestin coupling % efficacy” value in experiment [1] is on record as “No stim”. In experiment [2], the pEC50 was 6.97 and the Emax amounted to 71%. Moreover, the pIC50 in experiment [3] (setting [6]) was 6.92.
In the case of `Cc1cc(CC(=O)N2CCN[C@@H]3COC[C@H](N4CCCC4)[C@H]32)ccc1Cl` (racemic) [Example 5A58], the Emax at 10 µM in experiment [1] (setting [4]) came to 20%. Moreover, in experiment [2], the pEC50 was 6.58 and the Emax turned out to be 161%. The pIC50 in experiment [3] (setting [6]) was 6.94.
With `CCN(CC)[C@H]1COC[C@H]2NCCN(C(=O)Cc3ccc(Cl)c(Cl)c3)[C@@H]21` (racemic) [Example 5A64], the “β-arrestin coupling % efficacy” value in experiment [1] is listed as “No stim”. In experiment [2], the negative-log EC50 (pEC50) was 5.67 and the Emax stood at 68%. In experiment [3] (setting [6]), the pIC50 was 5.72.
Take `CS(=O)(=O)N1CCN(C(=O)Cc2ccc(Cl)c(Cl)c2)[C@H]2[C@H]1COC[C@@H]2N1CCCC1` (single isomer, unassigned) [Example 5A44A]: the Emax at 10 µM in experiment [1] (setting [4]) stood at 80%. Also, in experiment [2], the pEC50 was 8.47 and the Emax was 119%. The pIC50 in experiment [3] is 8.27.
`CS(=O)(=O)N1CCN(C(=O)Cc2ccc(Cl)c(Cl)c2)[C@H]2[C@H]1COC[C@@H]2N1CCCC1` (racemic) [Example 5A44]: the pEC50 in experiment [1] is 5.21. For the same molecule, the Emax at 10 µM in experiment [1] (setting [5]) worked out at 55%. Moreover, in experiment [2], the pEC50 is 8.17 and the Emax worked out at 88%. In addition, in experiment [3], the pIC50 was 7.72.
